Test results published in patent US9926375B2, “Anti-endoglin antibodies and uses thereof” (Tracon Pharmaceuticals, Inc., priority 2014, dated 2018).

What was measured:
[1] = test system: BLM-induced pulmonary fibrosis model mice; assay: Bleomycin-induced pulmonary fibrosis model; assay type: in vivo, mouse; conditions: vs isotype-control antibody group (isotype-control vs disease control group); day 21; Bonferroni, P<0.05
Description: Pathogen-free 7 weeks old female C57BL/6J mice were obtained from Japan SLC, Inc. (Japan). At day 0, 60 mice were induced to develop pulmonary fibrosis by a single intratracheal administration of bleomycin sulphate (BLM, Nippon Kayaku, Japan) in saline at a dose of 3 mg/kg, in a volume of 50 μL per animal using Microsprayer® (Penn-Century, USA).
BLM-induced pulmonary fibrosis model mice were randomized into 4 groups of 12 mice based on the body weight on the day before the start of treatment.
Group 3 (M1043 Antibody): Twelve BLM-induced pulmonary fibrosis model mice were intravenously administered vehicle supplemented with M1043 at a dose of 10 mg/kg twice weekly at day 7, 10, 14 and 17.
Group 4 (TRC105 human/mouse chimeric antibody): Twelve BLM-induced pulmonary fibrosis model mice were intravenously administered vehicle supplemented with TRC105 at a dose of 10 mg/kg twice weekly at day 7, 10, 14 and 17.
Group 5 (BIBF1120 inhibitor for Idiopathic Pulmonary Fibrosis—positive control, Boehringer Ingelheim): Twelve BLM-induced pulmonary fibrosis model mice were orally administered 1% CMC supplemented with BIBF1120 at a dose of 100 mg/kg once daily from day 7 to 21. […]
Histological analysis of lung sections was conducted by practitioners who are not aware of the Group identity. Masson's Trichrome staining is conducted and an Ashcroft Score estimate was determined. […]

[2] = test system: NASH mice; assay: Murine model of non-alcoholic steatohepatitis (NASH; STZ and high fat diet); assay type: in vivo, mouse
Text: The purpose of this study was to examine the protective effects of endoglin antibodies on a murine model of NASH.
NASH was established by a single subcutaneous injection of STZ (Sigma, USA) after birth and feeding with a high fat diet (HFD; CLEA Japan, Japan) ad libitum after 4 weeks of age (day 28±2).
Randomization of mice into 6 groups of 10 mice was done at 9 weeks of age (day 63±2), the day before the start of treatment.
Group 3 (Positive control; Temlisartan Group): Ten NASH mice were be orally administered pure water supplemented with telmisartan at a dose of 10 mg/kg once daily from day 63 to 84.
Group 4 (Antibody M1043: M1043 Group): Ten NASH mice were intravenously administered vehicle supplemented with Antibody M1043 at a dose of 10 mg/kg twice weekly at day 63, 66, 70, 73, 77 and 80.
Group 5 (Antibody TRC105; TRC105 Group): Ten NASH mice were intravenously administered vehicle supplemented with Antibody TRC105 at a dose of 10 mg/kg twice weekly at day 63, 66, 70, 73, 77 and 80.
Group 6 (Antibody TRC205; TRC205 Group): Ten NASH mice were intravenously administered vehicle supplemented with Antibody TRC205 at a dose of 10 mg/kg twice weekly at days 63, 66, 70, 73, 77 and 80.
Mice in all groups were terminated for the following assays at 12 weeks of age.
H&E staining of liver tissue was conducted to estimate NAFLD Activity score.
Total NAS score represents the sum of scores for steatosis, lobular inflammation, and ballooning, and ranges from 0-8. Diagnosis of NASH (or, alternatively, fatty liver not diagnostic of NASH) should be made first, then NAS is used to grade activity. In the reference study, NAS scores of 0-2 occurred in cases largely considered not diagnostic of NASH, scores of 3-4 were evenly divided among those considered not diagnostic, borderline, or positive for NASH. Scores of 5-8 occurred in cases that were largely considered diagnostic of NASH.
Statistical tests were performed using Bonferroni Multiple Comparison Test. P values<0.05 were considered statistically significant.

[3] = biological target: T1, mouse endoglin (Mus musculus, UniProt Q63961); assay: Inhibition of mouse BMP binding to mouse endoglin (statement, no method); conditions: statement in description
T1 sequence (Q63961 27-653): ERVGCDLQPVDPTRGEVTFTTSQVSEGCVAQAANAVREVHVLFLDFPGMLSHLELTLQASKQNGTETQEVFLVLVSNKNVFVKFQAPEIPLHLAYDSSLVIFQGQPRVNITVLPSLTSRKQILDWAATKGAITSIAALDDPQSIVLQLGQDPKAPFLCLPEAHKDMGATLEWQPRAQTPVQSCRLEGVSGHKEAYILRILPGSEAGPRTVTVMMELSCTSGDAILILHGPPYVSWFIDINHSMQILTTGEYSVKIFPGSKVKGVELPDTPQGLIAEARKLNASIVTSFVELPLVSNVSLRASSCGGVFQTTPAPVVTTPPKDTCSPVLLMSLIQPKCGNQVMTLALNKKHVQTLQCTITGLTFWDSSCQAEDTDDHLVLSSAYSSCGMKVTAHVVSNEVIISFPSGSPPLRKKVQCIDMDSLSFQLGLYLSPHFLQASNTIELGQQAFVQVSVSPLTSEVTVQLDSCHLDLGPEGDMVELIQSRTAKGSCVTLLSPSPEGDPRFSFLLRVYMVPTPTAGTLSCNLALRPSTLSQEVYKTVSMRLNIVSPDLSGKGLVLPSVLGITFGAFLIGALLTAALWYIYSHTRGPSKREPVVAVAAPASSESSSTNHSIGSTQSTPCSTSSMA

[4] = biological target: T2, human endoglin (Homo sapiens, UniProt P17813); conditions: statement in description; cited from earlier work
T2 sequence (P17813 26-658): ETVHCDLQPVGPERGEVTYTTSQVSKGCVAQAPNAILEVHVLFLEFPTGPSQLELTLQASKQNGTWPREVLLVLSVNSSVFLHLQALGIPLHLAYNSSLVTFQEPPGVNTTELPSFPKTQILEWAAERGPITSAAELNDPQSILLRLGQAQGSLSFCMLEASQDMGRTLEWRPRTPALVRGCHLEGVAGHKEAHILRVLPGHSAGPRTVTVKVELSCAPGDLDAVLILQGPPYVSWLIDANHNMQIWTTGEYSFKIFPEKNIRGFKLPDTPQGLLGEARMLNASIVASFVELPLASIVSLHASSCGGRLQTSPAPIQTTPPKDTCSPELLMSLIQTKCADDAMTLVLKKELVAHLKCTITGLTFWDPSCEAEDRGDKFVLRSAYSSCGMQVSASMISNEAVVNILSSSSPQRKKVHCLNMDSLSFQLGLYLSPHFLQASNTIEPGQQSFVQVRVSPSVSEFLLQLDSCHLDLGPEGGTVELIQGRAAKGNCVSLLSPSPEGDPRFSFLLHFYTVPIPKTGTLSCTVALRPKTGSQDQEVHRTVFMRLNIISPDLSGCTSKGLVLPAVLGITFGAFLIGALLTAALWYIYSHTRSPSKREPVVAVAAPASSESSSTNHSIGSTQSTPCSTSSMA

[5] = liver gene expression, mean ± SD, Normal-Vehicle 1.0

TRC105: human murine chimeric IgG1 monoclonal antibody that binds endoglin; VL/VH SEQ ID NOS. 1 and 39
Ashcroft score, comparison between groups [1]: significantly lower | Liver triglyceride contents compared with the NASH-Vehicle group ([2]; Bonferroni, P<0.05): tended to decrease | NAS compared with the NASH-Vehicle group ([2]; Bonferroni, P<0.05): tended to decrease in NAS | Serum alanine aminotransferase (ALT) levels compared with the NASH-Vehicle group ([2]; Bonferroni, P<0.05): no significant difference | Serum alkaline phosphatase (ALP) levels compared with the NASH-Vehicle group ([2]; Bonferroni, P<0.05): tended to decrease | Tissue inhibitor of metalloproteinase-1 mRNA expression levels compared with the NASH-Vehicle group ([2]; Bonferroni, P<0.05): significantly up-regulated | Tumor necrosis factor-alpha mRNA expression levels compared with the NASH-Vehicle group ([2]; Bonferroni, P<0.05): significantly up-regulated | F4/80-positive signals and cells in liver compared with the NASH-Vehicle group ([2]; F4/80 immunostaining, macrophage marker): Lower F4/80-positive signals and positive cells | Alpha-SMA mRNA expression [2, 5]: 1.7 ± 0.7 | MCP-1 mRNA expression [2, 5]: 5.7 ± 4.2 | TIMP-1 mRNA expression [2, 5]: 25.4 ± 23.0 | TNF-α mRNA expression [2, 5]: 12.9 ± 9.5 | Liver triglyceride ([2]; mean ± SD): 31.1 ± 20.3 mg/g liver | Serum ALP ([2]; mean ± SD): 291 ± 119 U/L | Serum ALT ([2]; mean ± SD): 62 ± 57 U/L | Serum AST ([2]; mean ± SD): 204 ± 205 U/L | Sirius red-positive area ([2]; mean ± SD, liver sections): 0.92 ± 0.20% | NAS (NAFLD Activity score) ([2]; mean ± SD, range 0-8, 10 mg/kg): 4.4 ± 1.4 | Steatosis score 0, number of mice ([2]; score 0 = <5%, 12 weeks of age): 1 | Hepatocyte ballooning score 0, number of mice ([2]; score 0 = None): 3 | Steatosis score 1, number of mice ([2]; score 1 = 5-33%): 6 | Lobular inflammation score 1, number of mice ([2]; score 1 = <2 foci/200x): 1 | Lobular inflammation score 2, number of mice ([2]; score 2 = 2-4 foci/200x): 5 | Steatosis score 2, number of mice ([2]; score 2 = >33-66%): 1 | Hepatocyte ballooning score 2, number of mice ([2]; score 2 = Many cells/prominent ballooning): 5 | Lobular inflammation score 3, number of mice ([2]; score 3 = >4 foci/200x): 2 | Effect on mouse BMP binding to mouse endoglin [3]: dose not prevent the binding of mouse BMP to mouse endoglin | Effect on human BMP binding to human endoglin [4]: competitively inhibits human BMP binding
